Measured values taken from patent US20240148895A1, “ANTIBODY-DRUG CONJUGATE” (Eisai R&D Management Co., Ltd., priority 2022, published 2024).

These compounds were tested on AsPC-1/Cas9 cell line (human pancreatic cancer cell line AsPC-1) (assay: AsPC-1/Cas9 growth inhibition assay). Details: 5 days culture, CellTiter Glo 2.0, read-out: IC50 (Absolute IC50, 50% inhibition of cell growth).
Type: cell-based
Method: Human pancreatic cancer cell line AsPC-1 (ATCC Number CRL1682) was infected with Edit-R Lentiviral hCMV-Blast-Cas9 Nuclease Particle (Dharmacon, VCAS10124) in the presence of 8 μg/ml of Hexadimethrine bromide (Sigma, H9268), and after 24 hours it was exposed to 10 μg/ml of Blastcidin S (Thermo, A11139) to remove the uninfected cells, thereby establishing an AsPC-1/Cas9 cell line. The cells were maintenance cultured in a 5% CO2 incubator (37° C.) using RPMI-1640 (FujiFilm-Wako Pure Chemical Industries) containing 10% fetal bovine serum (FBS: SIGMA 173012) and penicillin/streptomycin (FujiFilm-Wako Pure Chemical Industries) (hereunder referred to simply as “culture medium”). After adding 25 μL of AsPC-1/Cas9 cell suspension prepared to 3.2×10^4 cells/mL using culture medium into each well of a 384-well plate (Greiner 781091), the cells were cultured overnight in a 5% CO2 incubator (37° C.). On the following day, 25 μL of the test substance diluted with culture medium was added to each well, and culturing was continued for 5 days in a 5% CO2 incubator (37° C.). Next, 25 μL of CellTiter Glo™ 2.0 (Promega) was added to each well, and the plate contents were mixed for 5 minutes using a plate mixer. The plate was stationed for 10 minutes at room temperature while shielded from light, and then the luminous intensity was measured with an ENVISION™ (Perkin-Elmer). The luminescence value of the wells with addition of test substance was determined as a relative value, with 100% as the luminescence value of the wells with cells but without addition of the test substance and 0% as the luminescence value of the wells without cells. A plot of test substance concentration against luminescence value % approximated a 4-parameter logistic curve, and the test substance concentration necessary for 50% inhibition of cell growth (Absolute IC50) was calculated, and is shown in Table 10. In Table 10, the antibodies listed as “CEACAM6_#84.7” are the anti-CEACAM6 antibody of Example 301-1, the antibodies listed as “003” are the anti-folate receptor α antibody of Example 301-2, and the antibodies listed as “345A12” are the anti-mesothelin antibody of Example 301-3.
According the same method as in the AsPC-1/Cas9 growth inhibition assay described in Example 313 above, the test substance concentration necessary for 50% inhibition of cell growth (Absolute IC50) in the ADC described in Example 318 was calculated and is shown in Table 12.
Work on “2-Cyclopropoxy-2-(2-(4-(((2S,5R)-2,5-dimethylpiperazin-1-yl)methyl)piperidin-1-yl)-6-(4-methoxy-1-methyl-6-oxo-1,6-dihydropyridin-3-yl)quinazolin-4-yl)-2-phenylethyl methyl(2-(methylamino)ethyl)carbamate [Example 34]” yielded an IC50 of 0.083 nM.
“4-(2-(4-Amino-4-methyl-[1,4′-bipiperidin]-1′-yl)-4-(1-cyclopropoxy-2-hydroxy-1-phenylethyl)quinazolin-6-yl)-6-methyl-1,6-dihydro-7H-pyrrolo[2,3-c]pyridin-7-one [Example 27]” was tested, and the IC50 was less than 0.015 nM.
CCn1c(=O)nc(C(CO)(OC)c2ccccc2)c2cc(-c3cc(C)c(=O)n(C)c3)ccc21 (racemic) [Example 17, 6-(1,5-Dimethyl-6-oxo-1,6-dihydropyridin-3-yl)-1-ethyl-4-(2-hydroxy-1-methoxy-1-phenylethyl)quinazoline-2(1H)-one] gave an IC50 of 0.04 nM.
Cc1cc(-c2ccc3nc(NS(C)(=O)=O)nc(C(CO)(CC4CC4)c4ccccn4)c3c2)cn(C)c1=O (stereo not shown) [Example 5, N-(4-(1-Cyclopropyl-3-hydroxy-2-(pyridin-2-yl)propan-2-yl)-6-(1,5-dimethyl-6-oxo-1,6-dihydropyridin-3-yl)quinazolin-2-yl)methanesulfonamide] gave an IC50 of 0.035 nM.
Cc1cc(-c2ccc3nc(N=S(C)(C)=O)nc(C(CO)(CC4CCOCC4)c4ccccc4)c3c2)cn(C)c1=O (stereo not shown) [Example 6] showed an IC50 of 0.029 nM.
With Cc1cc(-c2ccc3nc(N=S(C)(C)=O)nc(C(CO)(CC(C)C)c4ccccc4)c3c2)cn(C)c1=O (stereo not shown) [Example 7, 5-(2-((Dimethyl(oxo)-16-sulfanylidene)amino)-4-(1-hydroxy-4-methyl-2-phenylpentan-2-yl)quinazolin-6-yl)-1,3-dimethylpyridin-2(1H)-one] the IC50 was 0.051 nM.
For Cc1cc(-c2ccc3nc(NS(C)(=O)=O)nc(C(CO)(CC4CCC4)c4ccccc4)c3c2)cn(C)c1=O (stereo not shown) [Example 8, N-(4-(1-Cyclobutyl-3-hydroxy-2-phenylpropan-2-yl)-6-(1,5-dimethyl-6-oxo-1,6-dihydropyridin-3-yl)quinazolin-2-yl)methanesulfonamide], the IC50 was 0.043 nM.
Cc1cc(-c2ccc3cc(N=S(C)(C)=O)nc(C(CO)(OC4CC4)c4ccccc4)c3c2)cn(C)c1=O (stereo not shown) [Example 9, 5-(1-(1-Cyclopropoxy-2-hydroxy-1-phenylethyl)-3-((dimethyl(oxo)-16-sulfanylidene)amino)isoquinolin-7-yl)-1,3-dimethylpyridin-2(1H)-one] was tested, and the IC50 was 0.075 nM.
Cc1cc(-c2ccc3nc(NC(=O)N4CC(O)C4)nc(C(CO)(OC4CC4)c4ccccc4)c3c2)cn(C)c1=O (stereo not shown) [Example 10, N-(4-(1-Cyclopropoxy-2-hydroxy-1-phenylethyl)-6-(1,5-dimethyl-6-oxo-1,6-dihydropyridin-3-yl)quinazolin-2-yl)-3-hydroxyazetidine-1-carboxamide] showed an IC50 of 0.036 nM.
In the case of CCCC(CO)(c1ccccn1)c1[nH]c(=O)cc2ccc(-c3cc(C)c(=O)n(C)c3)cc12 (stereo not shown) [Example 11, 7-(1,5-Dimethyl-6-oxo-1,6-dihydropyridin-3-yl)-1-(1-hydroxy-2-(pyridin-2-yl)pentan-2-yl)isoquinoline-3(2H)-one], the IC50 is reported as 0.039 nM.
CCOCCC(CO)(c1ccccn1)c1nc(N)nc2ccc(-c3cc(C)c(=O)n(C)c3)cc12 (stereo not shown) [Example 12, 5-(2-Amino-4-(4-ethoxy-1-hydroxy-2-(pyridin-2-yl)butan-2-yl)quinazolin-6-yl)-1,3-dimethylpyridin-2(1H)-one] gave an IC50 of 0.038 nM.
Work on Cc1cc(-c2ccc3nc(N=S(C)(C)=O)nc(C(CO)(OC4CCC4)c4ccccc4)c3c2)cn(C)c1=O (stereo not shown) [Example 13, 5-(4-(1-Cyclobutoxy-2-hydroxy-1-phenylethyl)-2-((dimethyl (oxo)-16-sulfanylidene)amino)quinazolin-6-yl)-1,3-dimethylpyridin-2(1H)-one] yielded an IC50 of 0.043 nM.
CN1CCC(Oc2nc(C(CO)(OC3CC3)c3ccccc3)c3cc(-c4cn(C)c(=O)c5c4COC5)ccc3n2)CC1 (stereo not shown) [Example 14, 7-(4-(1-Cyclopropoxy-2-hydroxy-1-phenylethyl)-2-((1-methylpiperidin-4-yl)oxy)quinazolin-6-yl)-5-methyl-3,5-dihydrofuro[3,4-c]pyridine-4(1H)-one] was tested, and the IC50 was 0.038 nM.
Compound Cc1cc(-c2ccc3nc(N)nc(C(CO)(OC4CC4)c4cccs4)c3c2)cn(C)c1=O (stereo not shown) [Example 15, 5-(2-Amino-4-(1-cyclopropoxy-2-hydroxy-1-(thiophen-2-yl)ethyl)quinazolin-6-yl)-1,3-dimethylpyridin-2(1H)-one] has an IC50 of 0.039 nM.
With CCOC(CO)(c1ccccc1)c1nc(C(N)=O)cc2ccc(-c3cc(C)c(=O)n(C)c3)cc12 (stereo not shown) [Example 16, 7-(1,5-Dimethyl-6-oxo-1,6-dihydropyridin-3-yl)-1-(1-ethoxy-2-hydroxy-1-phenylethyl)isoquinoline-3-carboxamide] the IC50 was 0.035 nM.
Cc1cc(-c2ccc3nc(CNS(C)(=O)=O)nc(C(CO)(OC4CC4)c4ccccc4)c3c2)cn(C)c1=O (stereo not shown) [Example 18, N-((4-(1-Cyclopropoxy-2-hydroxy-1-phenylethyl)-6-(1,5-dimethyl-6-oxo-1,6-dihydropyridin-3-yl)quinazolin-2-yl)methyl)methanesulfonamide] gave an IC50 of 0.047 nM.
Cc1cc(-c2ccc3nc(N=S(C)(C)=O)nc(C(CO)(OC(C)C)c4ccccc4)c3c2)cn(C)c1=O (stereo not shown) [Example 19, 5-(2-((Dimethyl(oxo)-16-sulfanylidene)amino)-4-(2-hydroxy-1-isopropoxy-1-phenylethyl)quinazolin-6-yl)-1,3-dimethylpyridin-2(1H)-one] gave an IC50 of 0.031 nM.
With Cc1cc(-c2ccc3nc(N)nc(C(CO)(CC4CC4)c4cccnc4)c3c2)cn(C)c1=O (stereo not shown) [Example 20, 5-(2-Amino-4-(1-cyclopropyl-3-hydroxy-2-(pyridin-3-yl)propan-2-yl)quinazolin-6-yl)-1,3-dimethylpyridin-2(1H)-one] the IC50 was 0.035 nM.
For COc1ccc(CC(CO)(c2ccccn2)c2nc(N=S(C)(C)=O)nc3ccc(-c4cc(C)c(=O)n(C)c4)cc23)cc1F (stereo not shown) [Example 21, 5-(2-((Dimethyl(oxo)-16-sulfanylidene)amino)-4-(1-(3-fluoro-4-methoxyphenyl)-3-hydroxy-2-(pyridin-2-yl)propan-2-yl)quinazolin-6-yl)-1,3-dimethylpyridin-2(1H)-one], the IC50 was 0.061 nM.
Work on COCCC(CO)(c1ccccc1)c1nc(N=S(C)(C)=O)nc2ccc(-c3cc(C)c(=O)n(C)c3)cc12 (stereo not shown) [Example 22, 5-(2-((Dimethyl(oxo)-16-sulfanylidene)amino)-4-(1-hydroxy-4-methoxy-2-phenylbutan-2-yl)quinazolin-6-yl)-1,3-dimethylpyridin-2(1H)-one] yielded an IC50 of 1.6 nM.
In the case of Cc1cc(-c2ccc3nc(N=S(C)(C)=O)nc(C(CO)(Cc4ccccc4)c4ccccc4)c3c2)cn(C)c1=O (stereo not shown) [Example 23, 5-(2-((Dimethyl(oxo)-16-sulfanylidene)amino)-4-(1-hydroxy-2,3-diphenylpropan-2-yl)quinazolin-6-yl)-1,3-dimethylpyridin-2(1H)-one], the IC50 is reported as 0.034 nM.
With Cc1cc(-c2ccc3nc(N)nc(C(CO)(Cc4ccccc4)c4ncccn4)c3c2)cn(C)c1=O (stereo not shown) [Example 24, 5-(2-Amino-4-(1-hydroxy-3-phenyl-2-(pyrimidin-2-yl)propan-2-yl)quinazolin-6-yl)-1,3-dimethylpyridin-2(1H)-one] the IC50 was 0.043 nM.
